{"source": "patent US20240115654A1", "about": "“INTRAVENOUS ADMINISTRATION OF ENGINEERED ANTIMICROBIAL AMPHIPHILIC PEPTIDES” (priority 2021, published 2024)", "origin": "cited, not measured here", "tested_on": "Escherichia coli ATCC 25922 (QC)", "conditions": "E. coli ATCC 25922; established CLSI QC range; cited from earlier work"}
{"substance": "Colistin [reference compound]", "values": [{"measurement": "MIC QC range (in parentheses under the MIC)", "result": "(0.25-2) μg/mL"}]}
